According to patent publication US20050130232A1, “Methods of screening for compounds that modulate hormone receptor activity” (Allergan, Inc., priority 2001, published 2005):

Key:
Type in all cases: cell-based
[1] = target: T1, RXRα associated protein kinase (Homo sapiens, UniProt P19793); assay: In vitro phosphorylation of exogenous protein substrates by RXR-associated kinase; settings: Flag-RXR transfected cells, 10^-7 M
T1 sequence (P19793 1-462): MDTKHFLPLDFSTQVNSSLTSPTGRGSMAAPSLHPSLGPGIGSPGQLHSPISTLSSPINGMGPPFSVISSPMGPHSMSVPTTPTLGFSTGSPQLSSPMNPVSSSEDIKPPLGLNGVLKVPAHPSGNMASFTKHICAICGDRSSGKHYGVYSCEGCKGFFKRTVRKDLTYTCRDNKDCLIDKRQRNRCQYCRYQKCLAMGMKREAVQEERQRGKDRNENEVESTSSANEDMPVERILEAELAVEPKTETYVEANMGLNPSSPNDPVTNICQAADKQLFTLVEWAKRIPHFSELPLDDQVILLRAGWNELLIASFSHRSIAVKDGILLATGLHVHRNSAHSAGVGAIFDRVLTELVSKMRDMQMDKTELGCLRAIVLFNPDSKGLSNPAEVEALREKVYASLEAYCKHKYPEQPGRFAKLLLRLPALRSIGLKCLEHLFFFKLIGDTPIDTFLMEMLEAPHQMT
Experimental: Total cell lysates were immunoprecipitated with anti-FLAG antibody (M2). Immunoprecipitated material was used for in vitro kinas reaction with γ-^32P-ATP alone or with addition of exogenous mixed histones or myelin basic protein (MBP). The phosphorylated proteins were separated on SDS-PAGE and detected by autoradiography.
After terminating the kinase reaction, the products were analyzed by SDS-PAGE.
Kinase reactions with purified proteins were performed essentially as described above for synthetic peptide substrates. Briefly, immunoprecipitated complexes were resuspended in kinase assay buffer with 2 μg myelin basic protein (Sigma) or histone-M (Roche), and kinase reactions initiated by addition of 50 μM [γ-^32P]ATP (10 μCi). The reaction mixtures were then incubated at 25° C. with occasional shaking for 20 minutes, and terminated by addition of sample buffer. SDS-PAGE analysis and autoradiography were used to visualize the results.

RXRα = target: T2, RXRα (Homo sapiens, UniProt P19793); assay: In vivo metabolic labeling with [32P]orthophosphate of Flag-RXR transfected HEK 293 cells; set-up: expressed in transfected cells; host or cells: HEK 293; settings: [32P]orthophosphate labeling, ligand 10 minutes
T2 sequence (P19793 1-462): T1 sequence (P19793 1-462)
Source text: (A) AGN194204-dependent protein kinase activity in Flag-RXR immunocomplexes, which were immunoprecipitated from transfected cells using antibody against the “Flag” epitope tag fused to the RXR receptor. […] Total cell lysates were immunoprecipitated with anti-Flag antibody (M2). Aliquots of the immunocomplexes were used for the in vitro kinase reaction with [γ-^32P]ATP and separated on SDS-PAGE. Phosphorylated proteins were detected by autoradiography (top panel). Additional aliquots of the immunocomplexes were subjected to immunoblotting with polyclonal anti-RXR antisera (D20; bottom panel). (B) Phosphoamino acid analysis. Flag-RXR and the 160-kDa protein were phosphorylated in vitro and separated on SDS-PAGE as described above, then transferred onto PVDF membrane, detected by autoradiography, and cut out for hydrolysis with acid (6 N HCl). The phosphorylated amino acids and standards (P-Ser, P-Thr, and P-Tyr) were separated by thin-layer chromatography. Positions of the standards P-Ser, P-Thr, and P-Tyr were visualized by ninhydrin staining and are indicated by arrows. (C) In vivo metabolic labeling of transfected HEK 293 cells. […] Cells were washed with phosphate-free medium and starved for 90 minutes before incubation with [^32P]orthophosphate for another 4 hours. […] Phosphorylated proteins were detected by autoradiography. […]

[2] = tested on: MAP kinase (MAPK or ERK1/2); assay: MAP kinase phosphorylation in cells treated with RXR agonist (anti-phospho-MAPK immunoblot)
Experimental: Cells were lysed directly with 1×SDS sample buffer and the cell lysates were separated by SDS-PAGE and immunoblotted with anti-phospho-MAPK. […] Differentiated 3T3 adipocytes were starved, stimulated, and manipulated as described above. […] Detection of MAP kinase phosphorylation was performed as described above with anti-phospho-MAPK from Promega.
MAP kinase (MAPK or ERK1/2) is activated by phosphorylation on Thr and Tyr residues of a TEY motif by the dual-specific MAP kinase kinase (MEK). […] As further shown in FIG. 3C, the response was dose-dependent (0.01-100 nM), with maximal stimulation at 0.1 nM.

Compound: CC(/C=C/[C@@H]1C[C@]1(C)c1ccc2c(c1)C(C)(C)CCC2(C)C)=C\C(=O)O [AGN194204]
- in vitro phosphorylation of histone-M [1]: increased
- in vitro phosphorylation of myelin basic protein (MBP) [1]: dramatically increased
- in vivo phosphorylation of RXRα (RXRα): stimulated
- duration of increased MAP kinase phosphorylation [2]: about 20 minutes
- phosphorylation of MAP kinase ([2]; 3T3-L1 fibroblasts): increased phosphorylation of MAP kinase
- concentration of maximal stimulation of MAP kinase phosphorylation ([2]; 3T3-L1 fibroblasts, 5 minutes): 0.1 nM
- dose-dependent range of MAP kinase response ([2]; 3T3-L1 fibroblasts, 5 minutes): 10 to 100000 pM
- time to increased MAP kinase phosphorylation ([2]; after treatment): ≤ 5 min
- phosphorylation of MAP kinase ([2]; differentiated 3T3 adipocytes): increased phosphorylation of MAP kinase
